{
  "source": "patent US20110306626A1",
  "about": "“IMIDAZOLINONE DERIVATIVES AS CGRP RECEPTOR ANTAGONISTS” (priority 2008, published 2011)",
  "origin": "cited, not measured here",
  "key": {"[1]": {"system": "acute attacks of migraine", "details": "clinical trials (Olesen et al. 2004)"}, "[2]": {"system": "headache induced by CGRP infusion", "details": "control group (Petersen et al. 2005)"}, "[3]": {"system": "facial blood flow", "details": "marmoset, electrical stimulation of the trigeminal ganglion (Doods et al. 2000)"}, "[4]": {"system": "middle meningeal artery", "details": "rats, electrical stimulation of the dura mater, prior administration (Williamson et al. 1997)"}, "[5]": {"system": "facial blood flow", "details": "rat, trigeminal ganglion stimulation (Escott et al. 1995)"}},
  "note": "Ends that are not written are not given here.",
  "data": [
    {"molecule": "NCCCC[C@H](NC(=O)[C@@H](Cc1cc(Br)c(O)c(Br)c1)NC(=O)N1CCC(N2Cc3ccccc3NC2=O)CC1)C(=O)N1CCN(c2ccncc2)CC1", "note": "[BIBN4096BS]", "values": [
      {"measurement": "treatment of acute attacks of migraine", "setting": "[1]", "value": "effective in treating acute attacks of migraine"},
      {"measurement": "prevention of headache induced by CGRP infusion", "setting": "[2]", "value": "able to prevent headache induced by CGRP infusion"},
      {"measurement": "increase in facial blood flow", "setting": "[3]", "value": "could be blocked"}
    ]},
    {"molecule": "CGRP(8-37): a peptide CGRP antagonist; fragment of CGRP that lacks seven N-terminal amino acid residues (VTHRLAGLLSRSGGVVKNNFVPTNVGSKAF; ends and bridges not checked; UniProt P06881 90-119, looked up, fragment)", "values": [
      {"measurement": "increase of the diameter of the middle meningeal artery", "setting": "[4]", "value": "blocked"},
      {"measurement": "increase of facial blood flow", "setting": "[5]", "value": "inhibited"}
    ]}
  ]
}
